Key:
[1] = system: global ischemia; conditions: noncompetitive AMPA receptor antagonist; LaPeillet et al.; cited from earlier work
[2] = system: global and focal ischemic damage; conditions: competitive AMPA receptor antagonist; Sheardown et al., Buchan et al., LePeillet et al.; cited from earlier work

Structure (SMILES): Cc1nc(CCc2nc3ccc(F)cc3c(=O)n2-c2cccnc2C)cs1
- melting point: 151 to 153 °C

Structure (SMILES): CS(=O)(=O)O.Cc1nc(C=Cc2nc3ccc(F)cc3c(=O)n2-c2cccnc2C)cs1 (single isomer, unassigned)
- melting point: 145 to 146 °C

Structure (SMILES): CC1=NN=C(c2ccc(N)cc2)c2cc3c(cc2C1)OCO3 [GKYI 52466]
- neuroprotection in rat global ischemia models [1]: effective neuroprotective agent

Structure (SMILES): NS(=O)(=O)c1cccc2c1c([N+](=O)[O-])cc1nc(O)c(O)nc12 [NBQX, 2,3-dihydroxy-6-nitro-7-sulfamoylbenzo[f-]quinoxaline]
- prevention of global and focal ischemic damage [2]: effective in preventing global and focal ischemic damage

— patent US6380204B1, “Atropisomers of 3-heteroaryl-4(3H)-quinazolinones for the treatment of neurodegenerative and CNS-trauma related conditions” (Pfizer INC, priority 1997, dated 2002)
